Tested on: 349418-098-R-PDC spheroids, viability, % test/control
Experiment: Anticancer human tumor 349418-098-R-PDC patient-derived lung adenocarcinoma cell line growth inhibition [IpAb]
Details: spheroids with HUVEC and MSC; for IC50: curve of first compound; for viability, T/C: stronger effect = lower value
Summary of the method: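 Multi-cell spheroids of 60% tumour cells, 25% HUVEC and 15% MSC in ultra-low-attachment U-bottom wells, treated with agents combined with ipatasertib or abemaciclib. Half-log ranges top out near clinical Cmax, or 10 microM when Cmax is unknown.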
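Note: spheroids exposed to compounds for 7 days.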

## CC(=O)c1c(C)c2cnc(Nc3ccc(N4CCNCC4)cn3)nc2n(C2CCCC2)c1=O + CCN1CCN(Cc2ccc(Nc3ncc(F)c(-c4cc(F)c5nc(C)n(C(C)C)c5c4)n3)nc2)CC1
Second compound 0.01 µM
  IC50: 6.56 nM
Second compound 0.0316 µM
  IC50: < 0.949 nM
Second compound 0.1 µM
  IC50: < 0.949 nM
Second compound 0.316 µM
  IC50: < 0.949 nM
Second compound 1 µM
  IC50: < 0.949 nM
Second compound 0.01 µM, first compound 0.000949 µM
  viability, T/C: 58.4%
Second compound 0.01 µM, first compound 0.003 µM
  viability, T/C: 64.5%
Second compound 0.01 µM, first compound 0.00949 µM
  viability, T/C: 40.4%
Second compound 0.01 µM, first compound 0.03 µM
  viability, T/C: 35.1%
Second compound 0.01 µM, first compound 0.0949 µM
  viability, T/C: 19.1%
Second compound 0.01 µM, first compound 0.3 µM
  viability, T/C: 15.8%
Second compound 0.0316 µM, first compound 0.000949 µM
  viability, T/C: 40.7%
Second compound 0.0316 µM, first compound 0.003 µM
  viability, T/C: 38.7%
Second compound 0.0316 µM, first compound 0.00949 µM
  viability, T/C: 28.5%
Second compound 0.0316 µM, first compound 0.03 µM
  viability, T/C: 23.6%
Second compound 0.0316 µM, first compound 0.0949 µM
  viability, T/C: 15.1%
Second compound 0.0316 µM, first compound 0.3 µM
  viability, T/C: 15.6%
Second compound 0.1 µM, first compound 0.000949 µM
  viability, T/C: 24.8%
Second compound 0.1 µM, first compound 0.003 µM
  viability, T/C: 24.8%
Second compound 0.1 µM, first compound 0.00949 µM
  viability, T/C: 20.7%
Second compound 0.1 µM, first compound 0.03 µM
  viability, T/C: 19.5%
Second compound 0.1 µM, first compound 0.0949 µM
  viability, T/C: 16.1%
Second compound 0.1 µM, first compound 0.3 µM
  viability, T/C: 14.6%
Second compound 0.316 µM, first compound 0.000949 µM
  viability, T/C: 16.8%
Second compound 0.316 µM, first compound 0.003 µM
  viability, T/C: 19.6%
Second compound 0.316 µM, first compound 0.00949 µM
  viability, T/C: 19%
Second compound 0.316 µM, first compound 0.03 µM
  viability, T/C: 16%
Second compound 0.316 µM, first compound 0.0949 µM
  viability, T/C: 13.8%
Second compound 0.316 µM, first compound 0.3 µM
  viability, T/C: 14.4%
Second compound 1 µM, first compound 0.000949 µM
  viability, T/C: 13.4%
Second compound 1 µM, first compound 0.003 µM
  viability, T/C: 17.6%
Second compound 1 µM, first compound 0.00949 µM
  viability, T/C: 15.1%
Second compound 1 µM, first compound 0.03 µM
  viability, T/C: 15%
Second compound 1 µM, first compound 0.0949 µM
  viability, T/C: 14.9%
Second compound 1 µM, first compound 0.3 µM
  viability, T/C: 13.9%

## CC1(C)CCC(CN2CCN(c3ccc(C(=O)NS(=O)(=O)c4ccc(NCC5CCOCC5)c([N+](=O)[O-])c4)c(Oc4cnc5[nH]ccc5c4)c3)CC2)=C(c2ccc(Cl)cc2)C1 + CCN1CCN(Cc2ccc(Nc3ncc(F)c(-c4cc(F)c5nc(C)n(C(C)C)c5c4)n3)nc2)CC1
Second compound 0.01 µM
  IC50: 1810 nM
Second compound 0.0316 µM
  IC50: 1640 nM
Second compound 0.1 µM
  IC50: < 31.6 nM
Second compound 0.316 µM
  IC50: < 31.6 nM
Second compound 1 µM
  IC50: < 31.6 nM
Second compound 0.01 µM, first compound 0.0316 µM
  viability, T/C: 102%
Second compound 0.01 µM, first compound 0.1 µM
  viability, T/C: 75%
Second compound 0.01 µM, first compound 0.316 µM
  viability, T/C: 68.5%
Second compound 0.01 µM, first compound 1 µM
  viability, T/C: 67.8%
Second compound 0.01 µM, first compound 3.16 µM
  viability, T/C: 42.9%
Second compound 0.01 µM, first compound 10 µM
  viability, T/C: 6.47%
Second compound 0.0316 µM, first compound 0.0316 µM
  viability, T/C: 60.8%
Second compound 0.0316 µM, first compound 0.1 µM
  viability, T/C: 56.1%
Second compound 0.0316 µM, first compound 0.316 µM
  viability, T/C: 52.5%
Second compound 0.0316 µM, first compound 1 µM
  viability, T/C: 55.4%
Second compound 0.0316 µM, first compound 3.16 µM
  viability, T/C: 44.1%
Second compound 0.0316 µM, first compound 10 µM
  viability, T/C: 6.96%
Second compound 0.1 µM, first compound 0.0316 µM
  viability, T/C: 29.8%
Second compound 0.1 µM, first compound 0.1 µM
  viability, T/C: 32.8%
Second compound 0.1 µM, first compound 0.316 µM
  viability, T/C: 29%
Second compound 0.1 µM, first compound 1 µM
  viability, T/C: 26.3%
Second compound 0.1 µM, first compound 3.16 µM
  viability, T/C: 24.2%
Second compound 0.1 µM, first compound 10 µM
  viability, T/C: 6.59%
Second compound 0.316 µM, first compound 0.0316 µM
  viability, T/C: 20.6%
Second compound 0.316 µM, first compound 0.1 µM
  viability, T/C: 19.6%
Second compound 0.316 µM, first compound 0.316 µM
  viability, T/C: 21.5%
Second compound 0.316 µM, first compound 1 µM
  viability, T/C: 18.6%
Second compound 0.316 µM, first compound 3.16 µM
  viability, T/C: 20.6%
Second compound 0.316 µM, first compound 10 µM
  viability, T/C: 4.86%
Second compound 1 µM, first compound 0.0316 µM
  viability, T/C: 16.7%
Second compound 1 µM, first compound 0.1 µM
  viability, T/C: 18.6%
Second compound 1 µM, first compound 0.316 µM
  viability, T/C: 16%
Second compound 1 µM, first compound 1 µM
  viability, T/C: 17.9%
Second compound 1 µM, first compound 3.16 µM
  viability, T/C: 17%
Second compound 1 µM, first compound 10 µM
  viability, T/C: 4.09%

— PubChem BioAssay AID2060340 (Molecular Pharmacology Branch, DTP, NCI, 2025)
